Article PMC7335202, “A quaternary ammonium silane antimicrobial triggers bacterial membrane and biofilm destruction” (Scientific Reports, 2020)

Target: T1, Sortase A (Streptococcus mutans, UniProt Q8CM62)
T1 construct: gene srtA
T1 sequence (Q8CM62 1-246): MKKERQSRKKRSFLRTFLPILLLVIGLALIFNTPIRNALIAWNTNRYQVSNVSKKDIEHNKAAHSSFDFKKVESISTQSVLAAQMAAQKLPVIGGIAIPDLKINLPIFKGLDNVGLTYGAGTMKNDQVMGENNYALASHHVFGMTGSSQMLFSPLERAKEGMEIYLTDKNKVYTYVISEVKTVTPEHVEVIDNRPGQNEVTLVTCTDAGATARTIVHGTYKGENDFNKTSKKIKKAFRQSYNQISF
Assay: fluorescent peptide (Dabcyl-QALPETGEE-Edans) cleavage assay with purified sortase A; positive control inhibitor
Type: biochemical

For O=C(O)c1cc[c]([Hg][OH])cc1 [pHMB, ρ-hydroxymercuribenzoic acid], the IC50 was 24.5 ± 4.1 µM.
